Among the test systems are UO-31 renal; NCI-H226 lung; NCI-H23 lung; SK-MEL-28 melanoma; IGROV1 ovarian; RPMI-8226 leukemia; HOP-92 NSCLC; RXF 393 renal; OVCAR-8 ovarian; HCC-2998 colon.
Assay in all cases: growth of human tumour cells (NCI), 48 h

“And” between values parts separate entries of the source, which are not always exact repeats. Equal entries are not always repeated.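 In this assay, cells in 96-well plates receive the compound at five concentrations for 48 hours. Endpoints are linearly interpolated between the surrounding concentrations. The concentration for 50% growth inhibition is given as GI50. The concentration for full growth arrest is given as TGI.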

As to `COC(=O)[C@@]1(C(C)CC(=O)O)CCCCC1=O` (stereo not given in full), the TGI with UO-31 renal was over 100 µM; with NCI-H226 lung, over 100 µM; in the assay with NCI-H23 lung, over 100 µM; with SK-MEL-28 melanoma it was over 100 µM; in the assay with IGROV1 ovarian, over 100 µM; in the assay with RPMI-8226 leukemia it was 82 µM. The TGI with HOP-92 NSCLC, in the assay with RXF 393 renal, with OVCAR-8 ovarian and in the assay on HCC-2998 colon was over 100 µM in each case.
Turning to `CN(CCNCc1ccccn1)CCNCc1ccccn1`, the GI50 in the assay on UO-31 renal is 1.73 µM; in the assay on NCI-H226 lung, 1.92 µM; in the assay on NCI-H23 lung, 3.55 µM; in the assay with SK-MEL-28 melanoma it was 2.64 µM; in the assay on IGROV1 ovarian it was 3.23 µM; in the assay on RPMI-8226 leukemia, 3.41 µM. Besides, the GI50 with HOP-92 NSCLC is 2.02 µM; in the assay on RXF 393 renal, 1.94 µM; with OVCAR-8 ovarian it was 2.99 µM; in the assay on HCC-2998 colon, 2.17 µM. Besides, the TGI was 3.9 µM with UO-31 renal; 4.2 µM in the assay with NCI-H226 lung; over 100 µM in the assay on NCI-H23 lung; 8.17 µM with SK-MEL-28 melanoma; 12.6 µM in the assay with IGROV1 ovarian; 67.6 µM in the assay on RPMI-8226 leukemia. Further, the TGI with HOP-92 NSCLC is 5.27 µM; in the assay on RXF 393 renal it was 3.81 µM; in the assay on OVCAR-8 ovarian, 7.62 µM; in the assay on HCC-2998 colon, 4.64 µM.
On to `c1ccc2c(c1)Nc1ccncc1S2`, for which the GI50 in the assay on UO-31 renal is 12.7 µM; in the assay with NCI-H226 lung, 17.1 µM; in the assay on NCI-H23 lung, 20.7 µM; with SK-MEL-28 melanoma, 31.5 µM; in the assay with IGROV1 ovarian, 22.8 µM; in the assay with RPMI-8226 leukemia it was 17 µM. Moreover, the GI50 with HOP-92 NSCLC is 8.07 µM; in the assay on RXF 393 renal, 11.9 µM; in the assay with OVCAR-8 ovarian it was 21.6 µM; with HCC-2998 colon it was 27.9 µM. Also, the TGI is 74 µM in the assay with UO-31 renal; over 100 µM in the assay on NCI-H226 lung; over 100 µM with NCI-H23 lung; over 100 µM with SK-MEL-28 melanoma; 99.6 µM with IGROV1 ovarian; 78.1 µM in the assay with RPMI-8226 leukemia. Moreover, the TGI was 71.6 µM in the assay on HOP-92 NSCLC, 32 µM with RXF 393 renal, over 100 µM in the assay on OVCAR-8 ovarian and over 100 µM in the assay with HCC-2998 colon.
In the case of `C#CCNC(=O)[C@H](CC)[C@H]1CC[C@H](C)[C@H]([C@@H](C)[C@H](O)[C@H](C)C(=O)[C@H](CC)C2O[C@]3(C=CC(=O)[C@]4(CC[C@@](C)([C@H]5CC[C@](O)(CC)[C@H](C)O5)O4)O3)[C@H](C)C[C@@H]2C)O1` (stereo not given in full), the GI50 in the assay on UO-31 renal is 2.01 µM; in the assay on NCI-H226 lung, 2.94 µM; in the assay with NCI-H23 lung, 2.83 µM; in the assay with SK-MEL-28 melanoma it was 1.87 µM; in the assay with IGROV1 ovarian it was 2.03 µM; in the assay with RPMI-8226 leukemia, 1.77 µM. Moreover, the GI50 in the assay with HOP-92 NSCLC is 1.37 µM; with RXF 393 renal, 2.48 µM; with OVCAR-8 ovarian it was 2.96 µM; with HCC-2998 colon, 2.35 µM. Moreover, the TGI in the assay on UO-31 renal is 7.81 µM; in the assay with NCI-H226 lung, 22.6 µM; in the assay with NCI-H23 lung it was over 100 µM; in the assay on SK-MEL-28 melanoma, 3.96 µM; with IGROV1 ovarian, 7.92 µM; with RPMI-8226 leukemia, 4.9 µM. The TGI is 6.62 µM in the assay with HOP-92 NSCLC, 7.63 µM in the assay on RXF 393 renal, 35.8 µM in the assay on OVCAR-8 ovarian and 5.89 µM in the assay with HCC-2998 colon.
For `COC1=C(OC)C(=O)C(SC/C=C(\C)CCCC(C)CCCC(C)CCCC(C)C)=CC1=O` (stereo not given), the GI50 was 1.24 µM in the assay with UO-31 renal; 2.75 µM in the assay on NCI-H226 lung; 1.37 µM with NCI-H23 lung; 1.04 µM with SK-MEL-28 melanoma; 2.94 µM with IGROV1 ovarian; 0.126 µM in the assay on RPMI-8226 leukemia. For the same compound, the GI50 in the assay with HOP-92 NSCLC was 1.41 µM; in the assay with RXF 393 renal it was 1.36 µM; in the assay on OVCAR-8 ovarian, 0.456 µM; in the assay with HCC-2998 colon, 2.37 µM. Besides, the TGI was over 27.2 µM in the assay with UO-31 renal; over 100 µM in the assay on NCI-H226 lung; 36.1 µM in the assay on NCI-H23 lung; over 100 µM in the assay with SK-MEL-28 melanoma; over 29.2 µM in the assay with IGROV1 ovarian; 2.88 µM with RPMI-8226 leukemia. Besides, the TGI in the assay with HOP-92 NSCLC was 6.65 µM; with RXF 393 renal, over 91.6 µM; in the assay with OVCAR-8 ovarian, over 100 µM; with HCC-2998 colon, over 100 µM.
Consider `Cc1cc(N(CCCNc2ccnc3cc(Cl)ccc23)Cc2ccco2)nc(N2CCN(C)CC2)n1`, for which the GI50 in the assay on UO-31 renal was 2.02 µM; in the assay with NCI-H226 lung it was 12.4 µM; in the assay on NCI-H23 lung, 5.52 µM; in the assay with SK-MEL-28 melanoma, 1.74 µM; in the assay with IGROV1 ovarian, 2.39 µM; with RPMI-8226 leukemia, 2.09 µM. In addition, the GI50 with HOP-92 NSCLC was 1.92 µM; with RXF 393 renal it was 1.79 µM; with OVCAR-8 ovarian, 3.87 µM; in the assay with HCC-2998 colon it was 1.98 µM. Further, the TGI in the assay on UO-31 renal is 5.33 µM; in the assay with NCI-H226 lung it was 24.8 µM; with NCI-H23 lung, 22.1 µM; in the assay on SK-MEL-28 melanoma, 3.41 µM; in the assay on IGROV1 ovarian, 12.3 µM; in the assay on RPMI-8226 leukemia it was 5.15 µM. Moreover, the TGI in the assay with HOP-92 NSCLC worked out at 4.99 µM; in the assay on RXF 393 renal, 3.55 µM; in the assay with OVCAR-8 ovarian, 16.8 µM; with HCC-2998 colon, 4.88 µM.
For `O=C1OC(C(O)CO)C(O)=C1O` (stereo not given), the GI50 in the assay on UO-31 renal was 1760 µM and 1380 µM; with NCI-H226 lung it was 2150 µM and 4450 µM; with NCI-H23 lung, 2920 µM and > 4420 µM; with SK-MEL-28 melanoma, 2530 µM and > 10000 µM; in the assay with IGROV1 ovarian, 2040 µM and > 2490 µM; with RPMI-8226 leukemia it was 1910 µM and 2400 µM. For the same compound, the GI50 in the assay on HOP-92 NSCLC was 2060 µM and > 10000 µM; in the assay on RXF 393 renal, 1650 µM and 1750 µM; in the assay on OVCAR-8 ovarian, 1550 µM and 1510 µM; in the assay with HCC-2998 colon it was over 10000 µM. Also, the TGI in the assay on UO-31 renal is 3170 µM and 2720 µM; in the assay with NCI-H226 lung it was 4870 µM and > 6830 µM; in the assay on NCI-H23 lung, over 10000 µM; in the assay on SK-MEL-28 melanoma it was 6230 µM and > 10000 µM; in the assay with IGROV1 ovarian, 4140 µM and > 4350 µM; in the assay with RPMI-8226 leukemia it was 4500 µM and 6610 µM. In addition, the TGI in the assay with HOP-92 NSCLC was 4480 µM and > 10000 µM; with RXF 393 renal, 3080 µM and 3400 µM; in the assay with OVCAR-8 ovarian it was 3050 µM and 3190 µM; in the assay on HCC-2998 colon, over 10000 µM.
Take `C[N+](C)(C)CC1CCCC1=O` (stereo not given): the TGI with UO-31 renal came to 8.79 µM; in the assay with NCI-H226 lung, 34.6 µM; with NCI-H23 lung it was 9.67 µM; with SK-MEL-28 melanoma it was 3.72 µM; in the assay with IGROV1 ovarian, 32.3 µM; with RPMI-8226 leukemia, 11.2 µM. Besides, the TGI is 2.66 µM with HOP-92 NSCLC, 5.3 µM with RXF 393 renal, 4.99 µM with OVCAR-8 ovarian and 29.9 µM in the assay with HCC-2998 colon.

(Values after PubChem BioAssay (NCI).)
